Measurements reported in US20050009005A1, “Methods of using quantitative lipid metabolome data” (Lipomics Technologies, Inc., priority 2001, published 2005).
Read-outs that look alike come from different tables or passages of the source.

Tested on: de novo fatty acid synthesis
[1] = Adipose, CE, mean of treated mice
[2] = Adipose, FFA, mean of treated mice
[3] = Adipose, PL, mean of treated mice
[4] = Adipose, TAG, mean of treated mice
[5] = Heart, CE, mean of treated mice
[6] = Heart, FFA, mean of treated mice
[7] = Heart, PC, mean of treated mice
[8] = Heart, PS/I, mean of treated mice
[9] = Heart, TAG, mean of treated mice
[10] = Liver, CE, mean of treated mice

CN(CCOc1ccc(CC2SC(=O)NC2=O)cc1)c1ccccn1 (centres unmarked) [rosiglitazone]
14:0 (Adipose, CE, mean): 3.8 percentage of total fatty acids within each lipid class | 16:0 (Adipose, CE, mean): 10.9 percentage of total fatty acids within each lipid class | 16:1n7 (Adipose, CE, mean): 7.1 percentage of total fatty acids within each lipid class | 18:0 (Adipose, CE, mean): 3.8 percentage of total fatty acids within each lipid class | 18:1n7 (Adipose, CE, mean): 1.3 percentage of total fatty acids within each lipid class | 18:1n9 (Adipose, CE, mean): 31.8 percentage of total fatty acids within each lipid class | Saturates (Adipose, CE, mean): 24.3 percentage of total fatty acids within each lipid class | Total (Adipose, CE, mean): 100.0 percentage of total fatty acids within each lipid class | Total n7 (Adipose, CE, mean): 8.4 percentage of total fatty acids within each lipid class | Total n9 (Adipose, CE, mean): 33.7 percentage of total fatty acids within each lipid class | 14:0 [1]: 131.5 nanomoles per gram | 16:0 [1]: 361.1 nanomoles per gram | 16:1n7 [1]: 248.8 nanomoles per gram | 18:0 [1]: 128.3 nanomoles per gram | 18:1n7 [1]: 44.3 nanomoles per gram | 18:1n9 [1]: 1135.7 nanomoles per gram | Saturates [1]: 833.5 nanomoles per gram | Total n7 [1]: 293.1 nanomoles per gram | Total n9 [1]: 1202.9 nanomoles per gram | Total nMole of [1]: 3405.8 nanomoles per gram | 14:0 (Adipose, FFA, mean): 3.0 percentage of total fatty acids within each lipid class | 16:0 (Adipose, FFA, mean): 16.7 percentage of total fatty acids within each lipid class | 16:1n7 (Adipose, FFA, mean): 8.0 percentage of total fatty acids within each lipid class | 18:0 (Adipose, FFA, mean): 3.6 percentage of total fatty acids within each lipid class | 18:1n7 (Adipose, FFA, mean): 3.4 percentage of total fatty acids within each lipid class | 18:1n9 (Adipose, FFA, mean): 30.4 percentage of total fatty acids within each lipid class | Saturates (Adipose, FFA, mean): 23.9 percentage of total fatty acids within each lipid class | Total (Adipose, FFA, mean): 100.0 percentage of total fatty acids within each lipid class | Total n9 (Adipose, FFA, mean): 30.8 percentage of total fatty acids within each lipid class | 14:0 [2]: 391.9 nanomoles per gram | 16:0 [2]: 2241.1 nanomoles per gram | 16:1n7 [2]: 1073.7 nanomoles per gram | 18:0 [2]: 487.0 nanomoles per gram | 18:1n7 [2]: 461.5 nanomoles per gram | 18:1n9 [2]: 4055.1 nanomoles per gram | Saturates [2]: 3203.6 nanomoles per gram | Total n7 [2]: 1535.2 nanomoles per gram | Total n9 [2]: 4117.3 nanomoles per gram | Total nMole of [2]: 13373.4 nanomoles per gram | 14:0 (Adipose, PL, mean): 1.6 percentage of total fatty acids within each lipid class | 16:0 (Adipose, PL, mean): 18.8 percentage of total fatty acids within each lipid class | 16:1n7 (Adipose, PL, mean): 3.6 percentage of total fatty acids within each lipid class | 18:0 (Adipose, PL, mean): 13.7 percentage of total fatty acids within each lipid class | 18:1n7 (Adipose, PL, mean): 2.8 percentage of total fatty acids within each lipid class | 18:1n9 (Adipose, PL, mean): 18.0 percentage of total fatty acids within each lipid class | Saturates (Adipose, PL, mean): 36.3 percentage of total fatty acids within each lipid class | Total (Adipose, PL, mean): 100.0 percentage of total fatty acids within each lipid class | Total n7 (Adipose, PL, mean): 6.5 percentage of total fatty acids within each lipid class | Total n9 (Adipose, PL, mean): 19.2 percentage of total fatty acids within each lipid class | 14:0 [3]: 152.1 nanomoles per gram | 16:0 [3]: 1706.0 nanomoles per gram | 16:1n7 [3]: 338.8 nanomoles per gram | 18:0 [3]: 1240.0 nanomoles per gram | 18:1n7 [3]: 261.8 nanomoles per gram | 18:1n9 [3]: 1679.9 nanomoles per gram | Saturates [3]: 3281.6 nanomoles per gram | Total n7 [3]: 600.6 nanomoles per gram | Total n9 [3]: 1787.7 nanomoles per gram | Total nMole of [3]: 4559.5 nanomoles per gram | 14:0 (Adipose, TAG, mean): 1.8 percentage of total fatty acids within each lipid class | 16:0 (Adipose, TAG, mean): 22.5 percentage of total fatty acids within each lipid class | 16:1n7 (Adipose, TAG, mean): 7.3 percentage of total fatty acids within each lipid class | 18:0 (Adipose, TAG, mean): 1.5 percentage of total fatty acids within each lipid class | 18:1n7 (Adipose, TAG, mean): 3.2 percentage of total fatty acids within each lipid class | 18:1n9 (Adipose, TAG, mean): 30.5 percentage of total fatty acids within each lipid class | Saturates (Adipose, TAG, mean): 26.2 percentage of total fatty acids within each lipid class | Total (Adipose, TAG, mean): 100.0 percentage of total fatty acids within each lipid class | Total n7 (Adipose, TAG, mean): 10.5 percentage of total fatty acids within each lipid class | Total n9 (Adipose, TAG, mean): 30.8 percentage of total fatty acids within each lipid class | 14:0 [4]: 52712.2 nanomoles per gram | 16:0 [4]: 650079.8 nanomoles per gram | 16:1n7 [4]: 210006.6 nanomoles per gram | 18:0 [4]: 43888.4 nanomoles per gram | 18:1n7 [4]: 93310.6 nanomoles per gram | 18:1n9 [4]: 880178.1 nanomoles per gram | Saturates [4]: 755758.5 nanomoles per gram | Total n7 [4]: 303317.2 nanomoles per gram | Total n9 [4]: 891269.3 nanomoles per gram | Total nMole of [4]: 962282.9 nanomoles per gram | 14:0 (Heart, CE, mean): 4.3 percentage of total fatty acids within each lipid class | 16:0 (Heart, CE, mean): 14.6 percentage of total fatty acids within each lipid class | 16:1n7 (Heart, CE, mean): 3.4 percentage of total fatty acids within each lipid class | 18:0 (Heart, CE, mean): 6.4 percentage of total fatty acids within each lipid class | 18:1n7 (Heart, CE, mean): 1.3 percentage of total fatty acids within each lipid class | 18:1n9 (Heart, CE, mean): 25.5 percentage of total fatty acids within each lipid class | 14:0 [5]: 56.4 nanomoles per gram | 16:0 [5]: 198.8 nanomoles per gram | 16:1n7 [5]: 45.4 nanomoles per gram | 18:0 [5]: 89.0 nanomoles per gram | 18:1n7 [5]: 19.3 nanomoles per gram | 18:1n9 [5]: 370.9 nanomoles per gram | Saturates [5]: 379.2 nanomoles per gram | Total n7 [5]: 64.8 nanomoles per gram | Total n9 [5]: 383.4 nanomoles per gram | Total nMole of [5]: 1358.5 nanomoles per gram | 14:0 (Heart, CL, mean): 0.2 percentage of total fatty acids within each lipid class | 16:0 (Heart, CL, mean): 1.3 percentage of total fatty acids within each lipid class | 16:1n7 (Heart, CL, mean): 2.0 percentage of total fatty acids within each lipid class | 18:0 (Heart, CL, mean): 2.4 percentage of total fatty acids within each lipid class | 18:1n7 (Heart, CL, mean): 3.0 percentage of total fatty acids within each lipid class | 18:1n9 (Heart, CL, mean): 5.0 percentage of total fatty acids within each lipid class | Saturates (Heart, CL, mean): 4.1 percentage of total fatty acids within each lipid class | Total (Heart, CL, mean): 100.0 percentage of total fatty acids within each lipid class | Total n7 (Heart, CL, mean): 5.1 percentage of total fatty acids within each lipid class | Total n9 (Heart, CL, mean): 5.3 percentage of total fatty acids within each lipid class | 14:0 (Heart, FFA, mean): 2.1 percentage of total fatty acids within each lipid class | 16:0 (Heart, FFA, mean): 22.6 percentage of total fatty acids within each lipid class | 16:1n7 (Heart, FFA, mean): 3.0 percentage of total fatty acids within each lipid class | 18:0 (Heart, FFA, mean): 8.3 percentage of total fatty acids within each lipid class | 18:1n7 (Heart, FFA, mean): 3.6 percentage of total fatty acids within each lipid class | 18:1n9 (Heart, FFA, mean): 18.7 percentage of total fatty acids within each lipid class | Saturates (Heart, FFA, mean): 33.8 percentage of total fatty acids within each lipid class | Total (Heart, FFA, mean): 100.0 percentage of total fatty acids within each lipid class | Total n7 (Heart, FFA, mean): 6.6 percentage of total fatty acids within each lipid class | Total n9 (Heart, FFA, mean): 19.4 percentage of total fatty acids within each lipid class | 14:0 [6]: 52.4 nanomoles per gram | 16:0 [6]: 560.7 nanomoles per gram | 16:1n7 [6]: 73.6 nanomoles per gram | 18:0 [6]: 206.9 nanomoles per gram | 18:1n7 [6]: 90.0 nanomoles per gram | 18:1n9 [6]: 466.4 nanomoles per gram | Saturates [6]: 839.0 nanomoles per gram | Total n7 [6]: 163.6 nanomoles per gram | Total n9 [6]: 483.8 nanomoles per gram | Total nMole of [6]: 2482.9 nanomoles per gram | 14:0 (Heart, PC, mean): 0.2 percentage of total fatty acids within each lipid class | 16:0 (Heart, PC, mean): 29.2 percentage of total fatty acids within each lipid class | 16:1n7 (Heart, PC, mean): 1.0 percentage of total fatty acids within each lipid class | 18:0 (Heart, PC, mean): 11.6 percentage of total fatty acids within each lipid class | 18:1n7 (Heart, PC, mean): 4.0 percentage of total fatty acids within each lipid class | 18:1n9 (Heart, PC, mean): 10.7 percentage of total fatty acids within each lipid class | Saturates (Heart, PC, mean): 41.4 percentage of total fatty acids within each lipid class | Total (Heart, PC, mean): 100.0 percentage of total fatty acids within each lipid class | Total n7 (Heart, PC, mean): 5.0 percentage of total fatty acids within each lipid class | Total n9 (Heart, PC, mean): 10.9 percentage of total fatty acids within each lipid class | 14:0 [7]: 68.3 nanomoles per gram | 16:0 [7]: 8497.6 nanomoles per gram | 16:1n7 [7]: 289.1 nanomoles per gram | 18:0 [7]: 3392.4 nanomoles per gram | 18:1n7 [7]: 1154.7 nanomoles per gram | 18:1n9 [7]: 3120.1 nanomoles per gram | Saturates [7]: 12059.6 nanomoles per gram | Total n7 [7]: 1443.8 nanomoles per gram | Total n9 [7]: 3184.2 nanomoles per gram | Total nMole of [7]: 14579.5 nanomoles per gram | 14:0 (Heart, PS/I, mean): 0.3 percentage of total fatty acids within each lipid class | 16:0 (Heart, PS/I, mean): 5.2 percentage of total fatty acids within each lipid class | 16:1n7 (Heart, PS/I, mean): 0.4 percentage of total fatty acids within each lipid class | 18:0 (Heart, PS/I, mean): 33.6 percentage of total fatty acids within each lipid class | 18:1n7 (Heart, PS/I, mean): 1.4 percentage of total fatty acids within each lipid class | 18:1n9 (Heart, PS/I, mean): 5.1 percentage of total fatty acids within each lipid class | Saturates (Heart, PS/I, mean): 39.7 percentage of total fatty acids within each lipid class | Total (Heart, PS/I, mean): 100.0 percentage of total fatty acids within each lipid class | Total n7 (Heart, PS/I, mean): 1.8 percentage of total fatty acids within each lipid class | Total n9 (Heart, PS/I, mean): 5.8 percentage of total fatty acids within each lipid class | 14:0 [8]: 25.3 nanomoles per gram | 16:0 [8]: 515.0 nanomoles per gram | 16:1n7 [8]: 36.4 nanomoles per gram | 18:0 [8]: 3334.5 nanomoles per gram | 18:1n7 [8]: 143.9 nanomoles per gram | 18:1n9 [8]: 504.6 nanomoles per gram | Saturates [8]: 3945.4 nanomoles per gram | Total n7 [8]: 180.2 nanomoles per gram | Total n9 [8]: 572.9 nanomoles per gram | Total nMole of [8]: 4967.1 nanomoles per gram | 14:0 (Heart, TAG, mean): 3.0 percentage of total fatty acids within each lipid class | 16:0 (Heart, TAG, mean): 26.0 percentage of total fatty acids within each lipid class | 16:1n7 (Heart, TAG, mean): 4.9 percentage of total fatty acids within each lipid class | 18:0 (Heart, TAG, mean): 3.5 percentage of total fatty acids within each lipid class | 18:1n7 (Heart, TAG, mean): 3.2 percentage of total fatty acids within each lipid class | 18:1n9 (Heart, TAG, mean): 26.2 percentage of total fatty acids within each lipid class | 14:0 [9]: 160.8 nanomoles per gram | 16:0 [9]: 1597.3 nanomoles per gram | 16:1n7 [9]: 316.4 nanomoles per gram | 18:0 [9]: 173.5 nanomoles per gram | 18:1n7 [9]: 210.7 nanomoles per gram | 18:1n9 [9]: 1775.7 nanomoles per gram | Saturates [9]: 1993.9 nanomoles per gram | Total n7 [9]: 527.1 nanomoles per gram | Total n9 [9]: 1813.1 nanomoles per gram | Total nMole of [9]: 2014.7 nanomoles per gram | 14:0 (Liver, CE, mean): 1.9 percentage of total fatty acids within each lipid class | 16:0 (Liver, CE, mean): 48.0 percentage of total fatty acids within each lipid class | 16:1n7 (Liver, CE, mean): 11.8 percentage of total fatty acids within each lipid class | 18:0 (Liver, CE, mean): 3.5 percentage of total fatty acids within each lipid class | 18:1n7 (Liver, CE, mean): 2.3 percentage of total fatty acids within each lipid class | 18:1n9 (Liver, CE, mean): 19.9 percentage of total fatty acids within each lipid class | Saturates (Liver, CE, mean): 54.6 percentage of total fatty acids within each lipid class | Total (Liver, CE, mean): 100.0 percentage of total fatty acids within each lipid class | Total n7 (Liver, CE, mean): 14.1 percentage of total fatty acids within each lipid class | Total n9 (Liver, CE, mean): 20.5 percentage of total fatty acids within each lipid class | 14:0 [10]: 110.6 nanomoles per gram | 16:0 [10]: 2765.2 nanomoles per gram | 16:1n7 [10]: 678.5 nanomoles per gram
